# According to publication PMC9551036, “A selective and orally bioavailable VHL-recruiting PROTAC achieves SMARCA2 degradation in vivo” (Nature Communications, 2022):
# Several values for one entry are separate records, joined by “and”; a condition that tells them apart may be missing. Identical values can stand only once. Like-named read-outs stand apart in the source and are kept apart here.
# Columns and labels:
# [1] = molecular target: T1, SMARCA4^BD (Homo sapiens, UniProt P51532); assay: SPR binding to immobilised SMARCA4 bromodomain
# T1 construct: P51532, residues 1448–1569 with additional N-terminal SM residues; GST (TEV site) (N, cleaved yes); made in house; host or cells: Escherichia coli BL21(DE3); construct from SGC Toronto
# Procedure: SMARCA4^BD was provided by the Structural Genomics Consortium (SGC), Toronto[32] and SMARCA2^BD and PRM1^BD5 were synthesised by GeneArt then subcloned into pDEST15 vectors (Invitrogen). The VCB complex was expressed and purified as described previously, with the modification that 0.3 mM IPTG was used for induction of expression. […] Both were stored in 20 mM 4-(2-hydroxyethyl)−1-piperazineethanesulfonic acid (HEPES), 150 mM sodium chloride and 1 mM tris(2-carboxyethyl)phosphine (TCEP) pH 7.5. SMARCA2^BD, SMARCA4^BD and PBRM1^BD5 were expressed in Escherichia coli BL21(DE3) as N-terminal GST fusion proteins with a TEV protease cleavage site. Expression and purification of these proteins has been described previously[32],[33]. Starter cultures were grown overnight at 37 °C in 10 mL of Luria-Bertani (LB) medium with ampicillin (100 μg/mL). The starter cultures were diluted (1:100) in Terrific Broth (TB) medium with ampicillin (100 μg/mL) and grown in a shaking incubator at 37 °C to an optical density (OD600) ~1 before the temperature was lowered for induction (to 23 °C for SMARCA2^BD or 18 °C for SMARCA4^BD and PRRM1^BD5). […] Cells were harvested by centrifugation and stored at −80 °C prior to purification. Cells were resuspended in Lysis buffer and lysed by sonication (20 pulses of 5 s for 4 min) using a Sonopuls HD 3080 (Bandelin, Berlin, Germany) or by homogenisation using a Stansted Pressure Cell Homogeniser (Stansted Fluid Power). The Lysis buffers were as follows: for SMARCA2^BD: 50 mM HEPES, 500 mM sodium chloride, 5% glycerol, 5 mM dithiothreitol (DTT); for SMARCA4^BD: 25 mM HEPES, 0.3 M sodium chloride, 5% glycerol, 10 mM DTT, pH 7.5; for PBRM1^BD5: 25 mM HEPES, 300 mM sodium chloride, 5% glycerol, 10 mM DTT, pH 7.8; in each case supplemented with complete protease inhibitors (Roche). Affinity purification was performed using Glutathione Sepharose 4B (GE Healthcare) in batch mode or on-column. […] For SMARCA2^BD, prior to TEV protease cleavage the eluted GST-tagged BD was first dialysed into desalting buffer (20 mM HEPES, 250 mM sodium chloride, pH 7.0 + 0.5% glycerol). Where TEV cleavage was performed in solution, a second affinity (GST-trap) column purification step was carried out to remove the GST-tag and uncleaved GST-tagged protein. Proteins were further purified by SEC (HiLoad Superdex-75, 16/600) (GE Healthcare) and stored in Storage buffer (for SMARCA2^BD: 20 mM HEPES, 150 mM sodium chloride, pH 7.5; for SMARCA4^BD: 10 mM HEPES, 0.5 M NaCl, 5% glycerol, pH 7.5; for PBRM1^BD5: 20 mM HEPES, 300 mM NaCl, 5 mM DTT, pH 7.8). For AlphaScreen assays, eluted GST-tagged BDs were purified directly by SEC in the respective storage buffers without TEV cleavage. All chromatography purification steps were performed either at room temperature or 4 °C using an ÄKTA FPLC purification system (GE Healthcare) or a plastic Econo-Pac column (Bio-Rad).
# SPR data were acquired on Biacore 8K or T200 instruments (Cytiva). Target proteins were immobilised at 25 °C on CM5 chips by amine coupling (EDC/NHS, Cytiva) in HBS-P+ running buffer (pH 7.4), containing 2 mM TCEP. After surface activation with EDC/NHS (contact time 420 s, flow rate 10 µl/min) SMARCA2^BD and SMARCA4^BD at 0.01–0.05 mg/ml in coupling buffer (10 mM Na-Acetate pH 6.5, 0.005% TWEEN 20 and 50 µM PFI-3[13]) were immobilised to a density of 100–5000 Response Units (RU). The reference surface was subsequently deactivated using 1 M ethanolamine. For VCB immobilisation, streptavidin (Sigma Aldrich, prepared at 1 mg/ml in 10 mM sodium acetate coupling buffer, pH 5.0) was immobilised by amine coupling to a density of 3000–5000 RU after which biotinylated VCB complex (0.125 mM in running buffer) was streptavidin-coupled to a density of 100–500 RU. Biotinylated VCB was prepared as previously described[27]: in brief, the complex was mixed 1:1 with EZ-Link NHS–PEG4–biotin (Thermo Scientific) and incubated at room temperature for 1 h.
# [2] = molecular target: T2, (Homo sapiens, UniProt P51532); assay: TR-FRET ternary complex affinity and cooperativity, SMARCA4; format: binding
# T2 construct: P51532, residues 1448–1569 with additional N-terminal SM residues; GST (TEV site) (N); His6 (TEV site) (N, cleaved yes); made in house; host or cells: SMARCA4^BD: Escherichia coli BL21(DE3)
# [3] = molecular target: VCB: PROTAC: SMARCA2^BD ternary complex (Homo sapiens, UniProt P40337+P51531); assay: TR-FRET ternary complex affinity and cooperativity, SMARCA2; format: binding; design: P51531-2, residues 1373-1493 with additional N-terminal SM residues; GST (TEV site) (N); His6 (TEV site) (N, cleaved yes); made in house; host or cells: SMARCA2^BD: Escherichia coli BL21(DE3)
# [4] = TR-FRET competition for SMARCA4BD, without VCB, mean ± SD, read-out: TR-FRET SMARCA4BD EC50
# [5] = binary, PROTAC alone, individual replicates, read-out: SMARCA4 BD EC50
# [6] = PROTAC + VCB, individual replicates, read-out: Ternary SMARCA2 BD EC50 (PROTAC + VCB)
# [7] = TR-FRET competition for SMARCA2BD, + VCB, mean ± SD, read-out: TR-FRET Ternary SMARCA2BD EC50 (PROTAC + VCB)
# T2 sequence (P51532 1448-1569): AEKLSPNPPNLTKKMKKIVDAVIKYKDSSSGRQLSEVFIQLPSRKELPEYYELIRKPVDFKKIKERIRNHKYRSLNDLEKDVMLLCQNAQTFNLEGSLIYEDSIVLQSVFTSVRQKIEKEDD
# T1 sequence (P51532 1448-1569): as above
# Chain of VCB: PROTAC: SMARCA2^BD ternary complex (P51531 with tags, fused parts or gaps isoform P51531-2): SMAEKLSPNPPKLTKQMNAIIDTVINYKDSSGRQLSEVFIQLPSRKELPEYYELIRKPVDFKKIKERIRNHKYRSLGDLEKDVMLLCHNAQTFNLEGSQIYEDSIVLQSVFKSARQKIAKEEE
# Chain of VCB: PROTAC: SMARCA2^BD ternary complex (P40337 54-213): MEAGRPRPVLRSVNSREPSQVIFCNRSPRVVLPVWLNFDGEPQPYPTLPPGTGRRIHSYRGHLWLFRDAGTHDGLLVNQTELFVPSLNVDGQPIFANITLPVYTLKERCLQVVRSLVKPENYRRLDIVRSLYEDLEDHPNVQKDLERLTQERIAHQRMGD
# Chain of VCB: PROTAC: SMARCA2^BD ternary complex (Q15369 17-112 partner): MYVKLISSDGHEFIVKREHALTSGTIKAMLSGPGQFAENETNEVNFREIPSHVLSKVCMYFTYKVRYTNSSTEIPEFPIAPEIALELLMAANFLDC
# Chain of VCB: PROTAC: SMARCA2^BD ternary complex (Q15370 1-104 partner): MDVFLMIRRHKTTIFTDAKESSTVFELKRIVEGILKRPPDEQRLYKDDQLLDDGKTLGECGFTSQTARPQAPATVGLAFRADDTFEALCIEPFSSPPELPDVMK
SMILES,"Kd ([1]; SMARCA4BD, mean ± SD)",Kd ([1]; individual replicates),"EC50 [2, 4]","EC50 [2, 5]","EC50 [3, 6]","EC50 [3, 7]"
Cc1ncsc1-c1ccc(CNC(=O)[C@@H]2C[C@@H](O)CN2C(=O)[C@@H](NC(=O)C2(F)CC2)C(C)(C)C)c(OCCOCCOCCN2CCC(c3ccc4c(c3)n(C3CCCC3)c3nc(=O)c5c(Br)cccc5n43)CC2)c1 [compound 21],863 ± 179 nM,868 nM and 1040 nM and 682 nM,520 ± 73 nM,443 nM and 585 nM and 542 nM,138 nM and 122 nM and 143 nM,134 ± 11 nM
Cc1ncsc1-c1ccc(CNC(=O)[C@@H]2C[C@@H](O)CN2C(=O)[C@@H](NC(=O)C2(F)CC2)C(C)(C)C)c(OCCOCCOCCOCCN2CCC(c3ccc4c(c3)n(C3CCCC3)c3nc(=O)c5c(Br)cccc5n43)CC2)c1 [compound 22],1430 ± 339 nM,1040 nM and 1650 nM and 1600 nM,813 ± 126 nM,659 nM and 965 nM and 837 nM and 819 nM,95.1 nM and 86.8 nM and 90.2 nM and 144 nM,102 ± 27 nM
Cc1ncsc1-c1ccc(CNC(=O)[C@@H]2C[C@@H](O)CN2C(=O)[C@@H](NC(=O)C2(F)CC2)C(C)(C)C)c(OCCCCN2CCC(c3ccc4c(c3)n(C3CCCC3)c3nc(=O)c5c(Br)cccc5n43)CC2)c1 [compound 23],169 ± 76 nM,117 nM and 133 nM and 256 nM,174 ± 21 nM,148 nM and 197 nM and 173 nM and 183 nM,115 nM and 127 nM and 132 nM and 372 nM,164 ± 124 nM
Cc1ncsc1-c1ccc([C@H](CCCCN2CCC(c3ccc4c(c3)n(C3CCCC3)c3nc(=O)c5c(Br)cccc5n43)CC2)NC(=O)[C@@H]2C[C@@H](O)CN2C(=O)[C@@H](NC(=O)C2(F)CC2)C(C)(C)C)cc1 [compound 25],153 ± 10 nM,142 nM and 157 nM and 161 nM,182 ± 57 nM,134 nM and 202 nM and 155 nM and 262 nM,208 nM and 27.9 nM and 62.3 nM and 29 nM and 29.1 nM and 33.2 nM and 38.8 nM and 39.9 nM and 50.6 nM and 51.7 nM and 46 nM and 34.5 nM and 27.1 nM,43 ± 48 nM
Cc1ncsc1-c1ccc([C@H](COCCN2CCC(c3ccc4c(c3)n(C3CCCC3)c3nc(=O)c5c(Br)cccc5n43)CC2)NC(=O)[C@@H]2C[C@@H](O)CN2C(=O)[C@@H](NC(=O)C2(N(C)C)CC2)C(C)(C)C)cc1 [compound 26],210 ± 17 nM,202 nM and 199 nM and 229 nM,149 ± 41 nM,136 nM and 180 nM and 162 nM and 117 nM and 111 nM and 126 nM and 154 nM and 147 nM and 247 nM,13.6 nM and 14.3 nM and 15.5 nM and 15.9 nM and 16.4 nM and 11.2 nM and 10.2 nM and 21.5 nM and 22 nM and 6 nM and 9.26 nM,13 ± 5 nM
Cc1ncsc1-c1ccc([C@H](COCCCN2CCC(c3ccc4c(c3)n(C3CCCC3)c3nc(=O)c5c(Br)cccc5n43)CC2)NC(=O)[C@@H]2C[C@@H](O)CN2C(=O)[C@@H](NC(=O)C2(F)CC2)C(C)(C)C)cc1 [compound 27],388 ± 96 nM,308 nM and 361 nM and 494 nM,193 ± 15 nM,183 nM and 211 nM and 185 nM and 209 nM and 173 nM and 200 nM,29.5 nM and 30.9 nM and 30.6 nM and 24.4 nM and 46.9 nM and 21.2 nM and 34.9 nM and 23.9 nM,29 ± 8 nM
Cc1ncsc1-c1ccc([C@H](COC(C)(C)CN2CCC(c3ccc4c(c3)n(C3CCCC3)c3nc(=O)c5c(Br)cccc5n43)CC2)NC(=O)[C@@H]2C[C@@H](O)CN2C(=O)[C@@H](NC(=O)C2(F)CC2)C(C)(C)C)cc1 [compound 28],278 ± 14 nM,267 nM and 293 nM and 274 nM,240 ± 55 nM,300 nM and 283 nM and 195 nM and 201 nM,34 nM and 37.9 nM and 38.6 nM and 39.5 nM and 28.8 nM and 36.1 nM and 40.6 nM and 27.9 nM and 35.6 nM and 32 nM,35 ± 4 nM
Cc1ncsc1-c1ccc([C@H](CC[C@@H](C)CCN2CCC(c3ccc4c(c3)n(C3CCCC3)c3nc(=O)c5c(Br)cccc5n43)CC2)NC(=O)[C@@H]2C[C@@H](O)CN2C(=O)[C@@H](NC(=O)C2(F)CC2)C(C)(C)C)cc1 [compound 29],397 ± 49 nM,347 nM and 400 nM,416 ± 177 nM,272 nM and 625 nM and 423 nM,29.4 nM and 32.4 nM and 32.3 nM and 32.6 nM,32 ± 2 nM
Cc1ncsc1-c1ccc([C@H](CCC(C)(C)CCN2CCC(c3ccc4c(c3)n(C3CCCC3)c3nc(=O)c5c(Br)cccc5n43)CC2)NC(=O)[C@@H]2C[C@@H](O)CN2C(=O)[C@@H](NC(=O)C2(F)CC2)C(C)(C)C)cc1 [compound 30],579 ± 89 nM,492 nM and 575 nM and 669 nM,,> 2000 nM and 564 nM and > 400 nM,45.6 nM and 53.2 nM and 68.1 nM and 44.6 nM and 46.9 nM,51 ± 10 nM
